Reference: patent US10669269B2, “Substituted N-(1H-indazol-4-yl)imidazo[1,2-a]pyridine-3-carboxamide compounds as type III receptor tyrosine kinase inhibitors” (ARRAY BIOPHARMA INC., priority 2010, dated 2020)
Structures can show the parent of a compound that is named as a salt.

Tests used:
[1] = biological target: T1, c-KIT (Homo sapiens, UniProt P10721); assay: c-KIT Cell-Based Assay (Example D); details: averaged IC50; phospho-c-KIT in M-07e cells stimulated with 150 ng/ml recombinant human SCF; read-out: cKIT Cell ELISA IC50
T1 construct: M-07e cells (human acute megakaryoblastic leukemia cell line) were serum-starved for 4 hours; endogenous in cells; host or cells: M-07e cells (human acute megakaryoblastic leukemia cell line)
T1 sequence (P10721 26-976): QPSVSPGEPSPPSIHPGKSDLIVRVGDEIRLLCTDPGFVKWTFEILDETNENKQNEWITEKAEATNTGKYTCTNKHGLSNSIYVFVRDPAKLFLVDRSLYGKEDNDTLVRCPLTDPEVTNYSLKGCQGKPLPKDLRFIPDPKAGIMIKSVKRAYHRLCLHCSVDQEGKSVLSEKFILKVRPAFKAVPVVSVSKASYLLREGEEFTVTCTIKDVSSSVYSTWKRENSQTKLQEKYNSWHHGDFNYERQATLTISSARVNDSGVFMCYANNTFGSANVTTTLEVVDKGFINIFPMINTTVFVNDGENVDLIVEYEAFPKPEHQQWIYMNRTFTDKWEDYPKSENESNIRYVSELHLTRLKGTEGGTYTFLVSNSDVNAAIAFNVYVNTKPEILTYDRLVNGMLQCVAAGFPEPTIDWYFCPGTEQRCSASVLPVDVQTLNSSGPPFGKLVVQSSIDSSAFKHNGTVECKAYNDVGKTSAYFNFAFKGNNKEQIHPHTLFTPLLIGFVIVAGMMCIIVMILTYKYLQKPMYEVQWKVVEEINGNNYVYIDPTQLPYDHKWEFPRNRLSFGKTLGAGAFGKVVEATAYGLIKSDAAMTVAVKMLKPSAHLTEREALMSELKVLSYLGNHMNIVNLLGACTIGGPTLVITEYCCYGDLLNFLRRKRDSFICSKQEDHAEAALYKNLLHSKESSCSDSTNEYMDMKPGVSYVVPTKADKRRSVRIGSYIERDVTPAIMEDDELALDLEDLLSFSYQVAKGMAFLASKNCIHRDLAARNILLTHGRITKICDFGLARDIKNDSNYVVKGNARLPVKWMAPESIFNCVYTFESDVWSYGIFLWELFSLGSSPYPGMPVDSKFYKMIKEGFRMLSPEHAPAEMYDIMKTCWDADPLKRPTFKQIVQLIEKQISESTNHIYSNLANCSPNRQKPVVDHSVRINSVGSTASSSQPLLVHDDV
Method in brief: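 M-07e cells serum-starved 4 h, treated 1 h with compound (9-point, 3-fold dilutions, top dose typically 5,000 nM) at 37° C, then stimulated 4 min with 150 ng/ml SCF. Phospho-c-KIT in lysates quantified by ELISA against a standard curve; IC50 from 4-parameter logistic fit as 50% of control.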

[2] = biological target: T2, cFMS (Homo sapiens, UniProt P07333); assay: cFMS Cell-Based Assay (Example C); details: averaged IC50; phospho-cFMS in THP-1 cells stimulated with 250 ng/mL recombinant human MCSF; read-out: cFMS Cell ELISA IC50
T2 construct: THP-1 cells (human acute monocytic leukemia cell line) were serum-starved for 4 hours; endogenous in cells; host or cells: THP-1 cells (human acute monocytic leukemia cell line)
T2 sequence (P07333 20-972): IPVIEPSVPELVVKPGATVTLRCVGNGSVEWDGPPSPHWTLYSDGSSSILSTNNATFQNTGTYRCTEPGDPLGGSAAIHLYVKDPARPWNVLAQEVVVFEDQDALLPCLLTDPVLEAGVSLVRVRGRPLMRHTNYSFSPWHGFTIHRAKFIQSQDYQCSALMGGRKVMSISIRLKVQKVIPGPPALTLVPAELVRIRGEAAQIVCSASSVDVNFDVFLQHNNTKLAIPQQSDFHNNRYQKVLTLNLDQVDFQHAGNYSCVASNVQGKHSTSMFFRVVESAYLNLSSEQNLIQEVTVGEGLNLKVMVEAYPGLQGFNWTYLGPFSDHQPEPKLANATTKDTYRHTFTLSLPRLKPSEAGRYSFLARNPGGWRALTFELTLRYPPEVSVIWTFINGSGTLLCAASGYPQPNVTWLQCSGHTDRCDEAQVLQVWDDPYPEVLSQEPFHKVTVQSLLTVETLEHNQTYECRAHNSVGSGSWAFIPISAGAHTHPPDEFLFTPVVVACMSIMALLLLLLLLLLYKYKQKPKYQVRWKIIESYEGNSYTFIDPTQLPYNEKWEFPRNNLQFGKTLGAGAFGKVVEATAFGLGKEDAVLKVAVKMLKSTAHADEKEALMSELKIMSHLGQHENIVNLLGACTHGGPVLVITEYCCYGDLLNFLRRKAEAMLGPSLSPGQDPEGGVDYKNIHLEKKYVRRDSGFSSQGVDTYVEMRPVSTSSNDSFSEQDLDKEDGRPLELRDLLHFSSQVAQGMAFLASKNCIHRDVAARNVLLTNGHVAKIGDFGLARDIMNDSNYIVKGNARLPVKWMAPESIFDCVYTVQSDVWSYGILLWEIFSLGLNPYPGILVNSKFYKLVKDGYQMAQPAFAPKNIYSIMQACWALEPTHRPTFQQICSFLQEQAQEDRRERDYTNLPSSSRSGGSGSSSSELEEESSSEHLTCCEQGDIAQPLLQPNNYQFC
Method in brief: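 THP-1 cells serum-starved 4 h, then treated 1 h with compound (9-point, 3-fold series, top dose typically 5,000 nM) at 37 °C, then stimulated 1 min with 250 ng/mL recombinant human MCSF. Phospho-cFMS in lysates quantified by capture ELISA against a purified phospho-protein standard curve. IC50 at 50 percent of control, 4-parameter logistic fit.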

[3] = biological target: T3, PDGFR beta (Homo sapiens, UniProt P09619); assay: Phospho PDGFR LICOR Cell Assay (Example B); type: cell-based; details: averaged IC50; PDGFR beta phosphorylation in HS27 human fibroblast cell line, PDGF-BB stimulation 10 minutes, normalized to total ERK
T3 construct: endogenous in cells; host or cells: HS27 human fibroblast cell line
T3 sequence (P09619 33-1106): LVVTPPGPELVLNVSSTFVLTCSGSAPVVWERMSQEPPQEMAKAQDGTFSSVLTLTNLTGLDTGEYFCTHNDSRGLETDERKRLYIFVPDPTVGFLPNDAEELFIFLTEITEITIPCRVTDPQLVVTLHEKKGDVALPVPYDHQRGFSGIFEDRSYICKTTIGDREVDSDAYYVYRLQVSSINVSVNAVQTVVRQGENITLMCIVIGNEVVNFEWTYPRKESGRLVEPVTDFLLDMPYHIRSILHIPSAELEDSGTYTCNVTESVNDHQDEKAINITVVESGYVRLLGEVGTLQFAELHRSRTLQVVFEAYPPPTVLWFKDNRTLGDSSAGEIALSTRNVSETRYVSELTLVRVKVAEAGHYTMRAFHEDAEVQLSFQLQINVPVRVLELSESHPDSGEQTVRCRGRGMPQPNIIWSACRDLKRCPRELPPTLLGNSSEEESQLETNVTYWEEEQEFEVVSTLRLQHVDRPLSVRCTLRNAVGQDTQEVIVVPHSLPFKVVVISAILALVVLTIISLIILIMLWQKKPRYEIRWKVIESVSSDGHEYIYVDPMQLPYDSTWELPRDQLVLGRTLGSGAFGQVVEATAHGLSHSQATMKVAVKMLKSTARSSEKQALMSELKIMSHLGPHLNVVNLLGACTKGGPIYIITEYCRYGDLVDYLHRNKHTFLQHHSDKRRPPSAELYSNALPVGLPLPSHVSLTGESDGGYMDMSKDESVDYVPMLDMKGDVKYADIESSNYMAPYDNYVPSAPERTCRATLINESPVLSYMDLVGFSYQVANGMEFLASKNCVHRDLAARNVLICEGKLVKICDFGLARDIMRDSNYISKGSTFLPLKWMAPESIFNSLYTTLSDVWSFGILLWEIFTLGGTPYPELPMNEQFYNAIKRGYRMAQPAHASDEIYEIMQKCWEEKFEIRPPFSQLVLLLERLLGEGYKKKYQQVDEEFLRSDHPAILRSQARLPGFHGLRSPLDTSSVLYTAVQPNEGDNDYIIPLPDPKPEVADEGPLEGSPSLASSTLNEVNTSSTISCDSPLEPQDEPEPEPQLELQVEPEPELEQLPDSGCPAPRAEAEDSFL
Method in brief: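 HS27 human fibroblasts pretreated 1 h with compound, then stimulated 10 min with PDGF-BB. Fixed, permeabilized cells immunostained for phospho-PDGFRβ and total ERK and read by two-colour infrared fluorescence, with phospho signal normalized to ERK. IC50 = 50% of control from 4-parameter logistic fit.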

SMILES	IC50 [1]	IC50 [2]	IC50 [3]
COCCOc1ccn2c(C(=O)Nc3cccc4c3cnn4Cc3ccc(OC)cc3)cnc2c1 [Example 114, N-(1-(4-methoxybenzyl)-1H-indazol-4-yl)-7-(2-methoxyethoxy)imidazo[1,2-a]pyridine-3-carboxamide]	0.0087 µM	0.0246 µM	0.0093 µM
COCCOc1ccn2c(C(=O)Nc3cccc4c3cnn4CC3CCCCC3)cnc2c1 [Example 115, N-(1-(cyclohexylmethyl)-1H-indazol-4-yl)-7-(2-methoxyethoxy)imidazo[1,2-a]pyridine-3-carboxamide]	0.0134 µM	0.0241 µM	0.0068 µM
COCCOc1ccn2c(C(=O)Nc3cccc4c3cnn4CC3CCCN(C(=O)OC(C)(C)C)C3)cnc2c1 (stereo not drawn) [Example 116, tert-butyl 3-((4-(7-(2-methoxyethoxy)imidazo[1,2-a]pyridine-3-carboxamido)-1H-indazol-1-yl)methyl)piperidine-1-carboxylate]	0.192 µM	0.185 µM	0.054 µM
COCCOc1ccn2c(C(=O)Nc3cccc4c3cnn4Cc3cccnc3C)cnc2c1 [Example 118, 7-(2-methoxyethoxy)-N-(1-((2-methylpyridin-3-yl)methyl)-1H-indazol-4-yl)imidazo[1,2-a]pyridine-3-carboxamide]	0.581 µM	0.31 µM	0.178 µM
COCCOc1ccn2c(C(=O)Nc3cccc4c3cnn4Cc3cccc(OCc4ccccc4)c3)cnc2c1 [Example 119, N-(1-(3-(benzyloxy)benzyl)-1H-indazol-4-yl)-7-(2-methoxyethoxy)imidazo[1,2-a]pyridine-3-carboxamide]	0.023 µM	0.0263 µM	0.0174 µM
COCCOc1ccn2c(C(=O)Nc3cccc4c3cnn4Cc3ccc(C(F)(F)F)cc3)cnc2c1 [Example 120, 7-(2-methoxyethoxy)-N-(1-(4-(trifluoromethyl)benzyl)-1H-indazol-4-yl)imidazo[1,2-a]pyridine-3-carboxamide]	0.0145 µM	0.0344 µM	0.0077 µM
COCCOc1ccn2c(C(=O)Nc3cccc4c3cnn4Cc3cccnc3)cnc2c1 [Example 121, 7-(2-methoxyethoxy)-N-(1-(pyridin-3-ylmethyl)-1H-indazol-4-yl)imidazo[1,2-a]pyridine-3-carboxamide]	0.0731 µM	0.0209 µM	0.0133 µM
COCCOc1ccn2c(C(=O)Nc3cccc4c3cnn4CC3CCN(C(=O)OC(C)(C)C)CC3)cnc2c1 [Example 122, tert-butyl 4-((4-(7-(2-methoxyethoxy)imidazo[1,2-a]pyridine-3-carboxamido)-1H-indazol-1-yl)methyl)piperidine-1-carboxylate]	0.0609 µM	0.131 µM	0.0495 µM
COCCOc1ccn2c(C(=O)Nc3cccc4c3cnn4Cc3ccc(C)nc3)cnc2c1 [Example 124, 7-(2-methoxyethoxy)-N-(1-((6-methylpyridin-3-yl)methyl)-1H-indazol-4-yl)imidazo[1,2-a]pyridine-3-carboxamide]	0.0095 µM	0.0083 µM	0.0069 µM
COc1ccn2c(C(=O)Nc3cccc4c3cnn4Cc3ccccc3)cnc2c1 [Example 125, N-(1-benzyl-1H-indazol-4-yl)-7-methoxyimidazo[1,2-a]pyridine-3-carboxamide]	0.0198 µM	0.0125 µM	0.0021 µM
O=C(Nc1cccc2c1cnn2Cc1ccccc1)c1cnc2ccccn12 [Example 126, N-(1-benzyl-1H-indazol-4-yl)imidazo[1,2-a]pyridine-3-carboxamide]	0.0222 µM	0.0274 µM	0.0345 µM
CCOc1ccn2c(C(=O)Nc3cccc4c3cnn4Cc3ccccc3)cnc2c1 [Example 127, N-(1-benzyl-1H-indazol-4-yl)-7-ethoxyimidazo[1,2-a]pyridine-3-carboxamide]	0.0678 µM	0.0149 µM	0.0017 µM
O=C(Nc1cccc2c1cnn2Cc1ccccn1)c1cnc2ccccn12 [Example 129, N-(1-(pyridin-2-ylmethyl)-1H-indazol-4-yl)imidazo[1,2-a]pyridine-3-carboxamide]	0.124 µM	0.08 µM	0.117 µM
COCCOc1ccn2c(C(=O)Nc3cccc4c3cnn4CC3CCCNC3)cnc2c1 (stereo not drawn) [Example 131, 7-(2-methoxyethoxy)-N-(1-(piperidin-3-ylmethyl)-1H-indazol-4-yl)imidazo[1,2-a]pyridine-3-carboxamide hydrochloride]	5 µM	0.993 µM	0.682 µM
COCCOc1ccn2c(C(=O)Nc3cccc4c3cnn4CC3CCCN(C(C)=O)C3)cnc2c1 (stereo not drawn) [Example 132, N-(1-((1-acetylpiperidin-3-yl)methyl)-1H-indazol-4-yl)-7-(2-methoxyethoxy)imidazo[1,2-a]pyridine-3-carboxamide]	0.604 µM	0.134 µM	0.17 µM
COCCOc1ccn2c(C(=O)Nc3c(Br)ccc4c3cnn4Cc3ccccc3)cnc2c1 [Example 134, N-(1-Benzyl-5-bromo-1H-indazol-4-yl)-7-(2-methoxyethoxy)imidazo[1,2-a]pyridine-3-carboxamide]	0.011 µM	0.0031 µM	0.0024 µM
COCCOc1ccn2c(C(=O)Nc3ccc(Cl)c4c3cnn4Cc3ccccc3)cnc2c1 [Example 135, N-(1-benzyl-7-chloro-1H-indazol-4-yl)-7-(2-methoxyethoxy)imidazo[1,2-a]pyridine-3-carboxamide]	0.396 µM	0.228 µM	0.362 µM
COCCOc1ccn2c(C(=O)Nc3c(Cl)cc(Cl)c4c3cnn4Cc3ccccc3)cnc2c1 [Example 136, N-(1-benzyl-5,7-dichloro-1H-indazol-4-yl)-7-(2-methoxyethoxy)imidazo[1,2-a]pyridine-3-carboxamide]	0.0541 µM	0.0207 µM	1 µM
COCCOc1ccn2c(C(=O)Nc3c(Cl)ccc4c3cnn4Cc3ccccc3)cnc2c1 [Example 137, N-(1-benzyl-5-chloro-1H-indazol-4-yl)-7-(2-methoxyethoxy)imidazo[1,2-a]pyridine-3-carboxamide]	0.0031 µM	0.0031 µM	0.002 µM
CC(C)c1cccc(Cn2ncc3c(NC(=O)c4cnc5cc(OCCN6CCN(C)CC6)ccn45)cccc32)n1 [Example 138, N-(1-((6-isopropylpyridin-2-yl)methyl)-1H-indazol-4-yl)-7-(2-(4-methylpiperazin-1-yl)ethoxy)imidazo[1,2-a]pyridine-3-carboxamide]	0.0039 µM	0.0085 µM	0.0019 µM
Cc1cc(Cn2ncc3c(NC(=O)c4cnc5cc(OCCN6CCN(C)CC6)ccn45)cccc32)nn1C(C)C [Example 139, N-(1-((1-isopropyl-5-methyl-1H-pyrazol-3-yl)methyl)-1H-indazol-4-yl)-7-(2-(4-methylpiperazin-1-yl)ethoxy)imidazo[1,2-a]pyridine-3-carboxamide]	0.0079 µM	0.0106 µM	0.0013 µM
COCCOc1ccn2c(C(=O)Nc3cccc4c3cnn4Cc3cccc(OC)c3)cnc2c1 [Example 140, N-(1-(3-methoxybenzyl)-1H-indazol-4-yl)-7-(2-methoxyethoxy)imidazo[1,2-a]pyridine-3-carboxamide]	0.0048 µM	0.0031 µM	0.0025 µM
COCCOc1ccn2c(C(=O)Nc3cccc4c3cnn4Cc3cccc(Cl)c3)cnc2c1 [Example 141, N-(1-(3-chlorobenzyl)-1H-indazol-4-yl)-7-(2-methoxyethoxy)imidazo[1,2-a]pyridine-3-carboxamide]	0.0037 µM	0.0044 µM	0.0016 µM
COCCOc1ccn2c(C(=O)Nc3cccc4c3cnn4Cc3cccc(C)n3)cnc2c1 [Example 142, 7-(2-methoxyethoxy)-N-(1-((6-methylpyridin-2-yl)methyl)-1H-indazol-4-yl)imidazo[1,2-a]pyridine-3-carboxamide]	0.0061 µM	0.0069 µM	0.0142 µM
COCCOc1ccn2c(C(=O)Nc3cccc4c3cnn4Cc3cccc(C)c3)cnc2c1 [Example 143, 7-(2-methoxyethoxy)-N-(1-(3-methylbenzyl)-1H-indazol-4-yl)imidazo[1,2-a]pyridine-3-carboxamide]	0.0589 µM	0.0048 µM	0.012 µM
O=C(Nc1cccc2c1cnn2Cc1ccccc1)c1cnc2cc(-c3cn[nH]c3)ccn12 [Example 145, N-(1-benzyl-1H-indazol-4-yl)-7-(1H-pyrazol-4-yl)imidazo[1,2-a]pyridine-3-carboxamide]	0.0559 µM	0.0205 µM	0.013 µM
CC(=O)c1ccn2c(C(=O)Nc3cccc4c3cnn4Cc3ccccc3)cnc2c1 [Example 146, 7-acetyl-N-(1-benzyl-1H-indazol-4-yl)imidazo[1,2-a]pyridine-3-carboxamide]	0.0369 µM	0.0582 µM	0.109 µM
